Measurements published in the supplement of paper PMC10307832.

Compound: C[C@@H](Oc1cc(-c2cnn(C3CCNCC3)c2)cnc1N)c1c(Cl)ccc(F)c1Cl [Crizotinib] + CC(=O)c1c(C)c2cnc(Nc3ccc(N4CCNCC4)cn3)nc2n(C2CCCC2)c1=O [Palbociclib] (partner 0.5 µM)
Assay: relative viability (nuclei count vs DMSO), 5 days (fraction); higher = more cells survive
Conditions: first compound 0.01 µM
Procedure, shortened: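 Dosing by pin tool came one day after lung cancer cell lines were seeded in 1536-well plates, using either one drug or a fixed anchor-drug dose plus five library-drug doses (not always all listed) in √10 steps. After 5 days, nuclei were counted on 4× images. Relative viability is treated-well nuclei count divided by vehicle-well nuclei count, and values are medians of duplicate plates.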

Row | Cell Line | relative viability
1 | NCI-H358 | 0.127
2 | NCI-H441 | 0.207
3 | NCI-H460 | 0.213
4 | NCI-H520 | 0.24
5 | NCI-H522 | 0.998
6 | NCI-H647 | 0.358
7 | NCI-H650 | 0.346
8 | NCI-H661 | 0.376
9 | NCI-H838 | 0.178
10 | NCI-H1355 | 0.415
11 | NCI-H1395 | 0.608
12 | NCI-H1437 | 0.283
13 | NCI-H1650 | 0.26
14 | NCI-H1651 | 0.507
15 | NCI-H1666 | 0.678
16 | NCI-H1734 | 0.346
17 | NCI-H1755 | 0.465
18 | NCI-H1915 | 0.517
19 | NCI-H1944 | 0.284
20 | NCI-H1975 | 0.594
21 | NCI-H1993 | 0.641

Same assay, conditions: first compound 0.03162 µM

Row | Cell Line | relative viability
22 | HCC-44 | 0.964
23 | HCC-78 | 0.537
24 | HCC-366 | 0.429
25 | HCC-827 | 0.492
26 | HOP-62 | 0.416
27 | LC-2-ad | 0.504
28 | LCLC-97TM1 | 0.25
29 | LCLC-103H | 0.435
30 | LK-2 | 0.691
31 | LOU-NH91 | 0.534
32 | LU99A | 0.407
33 | LXF-289 | 0.591
34 | NCI-H23 | 0.504
35 | NCI-H322M | 0.486
36 | NCI-H358 | 0.14
37 | NCI-H441 | 0.267
38 | NCI-H460 | 0.194
39 | NCI-H520 | 0.24

Row | Cell Line | relative viability
40 | NCI-H522 | 1.18
41 | NCI-H647 | 0.421
42 | NCI-H650 | 0.32
43 | NCI-H661 | 0.425
44 | NCI-H838 | 0.248
45 | NCI-H1355 | 0.378
46 | NCI-H1395 | 0.593
47 | NCI-H1437 | 0.328
48 | NCI-H1648 | 0.262
49 | NCI-H1650 | 0.359
50 | NCI-H1651 | 0.544
51 | NCI-H1666 | 0.685
52 | NCI-H1734 | 0.327
53 | NCI-H1755 | 0.445
54 | NCI-H1915 | 0.525
55 | NCI-H1944 | 0.315
56 | NCI-H1975 | 0.792
57 | NCI-H1993 | 0.67

Same assay, conditions: first compound 0.1 µM

Row | Cell Line | relative viability
58 | HCC-44 | 1.01
59 | HCC-78 | 0.545
60 | HCC-366 | 0.347
61 | HCC-827 | 0.498
62 | HOP-62 | 0.412
63 | LC-2-ad | 0.53
64 | LCLC-97TM1 | 0.197
65 | LCLC-103H | 0.438
66 | LK-2 | 0.596
67 | LOU-NH91 | 0.516
68 | LU99A | 0.384
69 | LXF-289 | 0.626
70 | NCI-H23 | 0.53
71 | NCI-H322M | 0.465
72 | NCI-H358 | 0.184
73 | NCI-H441 | 0.212
74 | NCI-H460 | 0.175
75 | NCI-H520 | 0.205

Row | Cell Line | relative viability
76 | NCI-H522 | 0.827
77 | NCI-H647 | 0.368
78 | NCI-H650 | 0.352
79 | NCI-H661 | 0.44
80 | NCI-H838 | 0.225
81 | NCI-H1355 | 0.387
82 | NCI-H1395 | 0.625
83 | NCI-H1437 | 0.302
84 | NCI-H1648 | 0.264
85 | NCI-H1650 | 0.379
86 | NCI-H1651 | 0.505
87 | NCI-H1666 | 0.712
88 | NCI-H1734 | 0.327
89 | NCI-H1755 | 0.445
90 | NCI-H1915 | 0.488
91 | NCI-H1944 | 0.307
92 | NCI-H1975 | 0.554
93 | NCI-H1993 | 0.666

Same assay, conditions: first compound 0.3162 µM

Row | Cell Line | relative viability
94 | HCC-44 | 0.94
95 | HCC-827 | 0.463
96 | HOP-62 | 0.396
97 | LCLC-97TM1 | 0.212
98 | LCLC-103H | 0.471
99 | LK-2 | 0.609
100 | LOU-NH91 | 0.533
101 | LU99A | 0.42
102 | LXF-289 | 0.569
103 | NCI-H322M | 0.53
104 | NCI-H358 | 0.127
105 | NCI-H441 | 0.188
106 | NCI-H460 | 0.166
107 | NCI-H520 | 0.204
108 | NCI-H522 | 1.04
109 | NCI-H647 | 0.404
110 | NCI-H661 | 0.435
111 | NCI-H838 | 0.239
112 | NCI-H1355 | 0.406
113 | NCI-H1395 | 0.596
114 | NCI-H1437 | 0.309
115 | NCI-H1648 | 0.275
116 | NCI-H1650 | 0.391
117 | NCI-H1651 | 0.534
118 | NCI-H1666 | 0.625
119 | NCI-H1755 | 0.457
120 | NCI-H1915 | 0.51
121 | NCI-H1944 | 0.345
122 | NCI-H1975 | 0.475
123 | NCI-H1993 | 0.535

Same assay, conditions: first compound 1 µM

Row | Cell Line | relative viability
124 | HCC-44 | 0.969
125 | HCC-78 | 0.513
126 | HCC-366 | 0.449
127 | HCC-827 | 0.413
128 | HOP-62 | 0.495
129 | LC-2-ad | 0.472
130 | LCLC-97TM1 | 0.205
131 | LCLC-103H | 0.508
132 | LK-2 | 0.534
133 | LOU-NH91 | 0.5
134 | LU99A | 0.357
135 | LXF-289 | 0.582
136 | NCI-H23 | 0.536
137 | NCI-H322M | 0.447
138 | NCI-H358 | 0.126
139 | NCI-H441 | 0.2
140 | NCI-H460 | 0.177

Row | Cell Line | relative viability
141 | NCI-H520 | 0.195
142 | NCI-H522 | 1.02
143 | NCI-H647 | 0.526
144 | NCI-H650 | 0.375
145 | NCI-H661 | 0.423
146 | NCI-H838 | 0.236
147 | NCI-H1355 | 0.406
148 | NCI-H1395 | 0.643
149 | NCI-H1437 | 0.356
150 | NCI-H1648 | 0.318
151 | NCI-H1650 | 0.319
152 | NCI-H1651 | 0.529
153 | NCI-H1666 | 0.623
154 | NCI-H1734 | 0.341
155 | NCI-H1755 | 0.451
156 | NCI-H1915 | 0.476
157 | NCI-H1944 | 0.344
